Assay results taken from US20260132132A1, “3A,4,5,6-TETRAHYDRO-1 H-PYRAZOLO[3,4-C]PYRIDIN-7(7AH)-ONE DERIVATIVES AS FACTOR XIIA INHIBITORS” (KALVISTA PHARMACEUTICALS LIMITED, priority 2022, published 2026).

How the values were obtained:
[1] = target: T1, Human Factor XIIa (hFXIIa) (Homo sapiens, UniProt P00748); experiment: Determination of Human Factor XIIa (hFXIIa) inhibition, fluorogenic substrate IC50 assay; format: biochemical; details: fluorogenic substrate H-DPro-Phe-Arg-AFC at Km, 25° C., read-out: Human FXIIa IC50
T1 construct: purchased Enzyme Research Laboratories
T1 sequence (P00748 373-615 limits assumed): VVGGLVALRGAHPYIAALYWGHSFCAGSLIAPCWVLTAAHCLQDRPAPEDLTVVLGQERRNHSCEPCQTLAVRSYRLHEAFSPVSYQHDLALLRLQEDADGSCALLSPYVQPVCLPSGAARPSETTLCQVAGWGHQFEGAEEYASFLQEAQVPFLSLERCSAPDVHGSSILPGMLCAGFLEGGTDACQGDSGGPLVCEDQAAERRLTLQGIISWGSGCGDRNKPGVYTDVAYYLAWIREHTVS
T1 sequence (P00748 20-372 partner limits assumed): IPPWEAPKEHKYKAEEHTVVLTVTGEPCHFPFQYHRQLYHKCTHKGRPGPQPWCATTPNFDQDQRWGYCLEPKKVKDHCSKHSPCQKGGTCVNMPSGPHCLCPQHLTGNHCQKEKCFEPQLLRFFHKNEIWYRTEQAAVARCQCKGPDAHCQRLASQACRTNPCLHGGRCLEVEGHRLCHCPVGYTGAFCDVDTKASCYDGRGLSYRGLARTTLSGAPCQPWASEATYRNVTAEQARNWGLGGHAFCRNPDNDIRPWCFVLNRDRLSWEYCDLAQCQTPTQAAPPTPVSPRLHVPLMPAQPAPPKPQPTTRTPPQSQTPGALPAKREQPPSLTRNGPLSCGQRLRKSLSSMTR
Protocol: Determination of Human Factor XIIa (hFXIIa) inhibition
The Km for the cleavage of the substrate by hFXIIa was determined by standard transformation of the Michaelis-Menten equation, with subsequent inhibition assays performed at substrate Km concentration.

FXa = FXa (Homo sapiens, UniProt P00742); experiment: Related protease inhibition: FXa, fluorogenic substrate; format: biochemical; details: fluorogenic substrate at Km, 25° C.; H1-H3 = % activity at 40 μM
Protocol: Human serine protease enzyme Plasma Kallikrein, KLK1, FXa, Plasmin, Thrombin and Trypsin were assayed for enzymatic activity using an appropriate fluorogenic substrate at Km concentration, FXIa at fixed substrate concentration of 100 μM and various concentrations of the test compound.

FXa, sequence (P00742 235-488 limits assumed): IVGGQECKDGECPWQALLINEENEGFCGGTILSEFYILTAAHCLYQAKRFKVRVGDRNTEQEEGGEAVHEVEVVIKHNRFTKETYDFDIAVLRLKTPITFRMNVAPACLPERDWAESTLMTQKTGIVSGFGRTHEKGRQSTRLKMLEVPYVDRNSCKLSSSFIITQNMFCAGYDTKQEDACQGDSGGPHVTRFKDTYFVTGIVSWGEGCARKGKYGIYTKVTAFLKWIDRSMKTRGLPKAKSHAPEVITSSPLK
FXa, sequence (P00742 41-179 partner limits assumed): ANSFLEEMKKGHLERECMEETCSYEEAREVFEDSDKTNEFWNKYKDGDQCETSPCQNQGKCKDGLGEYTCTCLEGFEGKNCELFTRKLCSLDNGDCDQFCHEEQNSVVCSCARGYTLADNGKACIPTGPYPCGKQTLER

Row | SMILES | IC50 [1] [nM] | IC50 (FXa) [nM]
1 | CCOC(=O)c1nn(-c2cccc(Cl)c2)c2c1CCN(c1cccc(-n3ccccc3=O)c1)C2=O [Example 1350, ethyl 1-(3-chlorophenyl)-7-oxo-6-(3-(2-oxopyridin-1(2H)-yl)phenyl)-4,5,6,7-tetrahydro-1H-pyrazolo[3,4-c]pyridine-3-carboxylate] | 3000 to 10000 | 3000 to 10000
2 | Cc1ccncc1CNC(=O)c1nn(-c2cccc(C(F)(F)F)c2)c2c1CCN(c1ccc3c(c1)CN(CCO)CC3)C2=O [Example 2009, 6-(2-(2-hydroxyethyl)-1,2,3,4-tetrahydroisoquinolin-7-yl)-N-((4-methylpyridin-3-yl)methyl)-7-oxo-1-(3-(trifluoromethyl)phenyl)-4,5,6,7-tetrahydro-1H-pyrazolo[3,4-c]pyridine-3-carboxamide] | 100 to 300 | > 40000
3 | O=C(NCC1CC1)c1nn(-c2cccc(Cl)c2)c2c1CCN(c1cc(F)c3c(c1)CN(CCO)CC3)C2=O [Example 1122, 1-(3-Chlorophenyl)-N-(cyclopropylmethyl)-6-(5-fluoro-2-(2-hydroxyethyl)-1,2,3,4-tetrahydroisoquinolin-7-yl)-7-oxo-4,5,6,7-tetrahydro-1H-pyrazolo[3,4-c]pyridine-3-carboxamide] | 100 to 300 | > 40000
4 | O=C(NCc1ccccc1)c1nn(-c2cccc(Cl)c2)c2c1CCN(c1ccc3c(c1)CN(C1CC1)CC3)C2=O [Example 1029, N-benzyl-1-(3-chlorophenyl)-6-(2-cyclopropyl-1,2,3,4-tetrahydroisoquinolin-7-yl)-7-oxo-4,5,6,7-tetrahydro-1H-pyrazolo[3,4-c]pyridine-3-carboxamide] | 300 to 1000 | > 100000
5 | CN1CCc2ccc(N3CCc4c(C(=O)NCCF)nn(-c5cccc(Cl)c5)c4C3=O)cc2C1=O [Example 1384, 1-(3-chlorophenyl)-N-(2-fluoroethyl)-6-(2-methyl-1-oxo-1,2,3,4-tetrahydroisoquinolin-7-yl)-7-oxo-4,5,6,7-tetrahydro-1H-pyrazolo[3,4-c]pyridine-3-carboxamide] | 300 to 1000 | > 40000
6 | CN1CCc2ccc(N3CCc4c(C(=O)NCC5CCOC5)nn(-c5cccc(Cl)c5)c4C3=O)cc2C1 (stereo not shown) [Example 1026, 1-(3-chlorophenyl)-6-(2-methyl-1,2,3,4-tetrahydroisoquinolin-7-yl)-7-oxo-N-((tetrahydrofuran-3-yl)methyl)-4,5,6,7-tetrahydro-1H-pyrazolo[3,4-c]pyridine-3-carboxamide] | 300 to 1000 | 10000 to 40000
7 | Cc1ccc(-n2nc(C(=O)NCc3cnccc3C)c3c2C(=O)N(c2ccc4c(c2)CN(CCO)CC4)CC3)cc1Cl [Example 2007, 1-(3-chloro-4-methylphenyl)-6-(2-(2-hydroxyethyl)-1,2,3,4-tetrahydroisoquinolin-7-yl)-N-((4-methylpyridin-3-yl)methyl)-7-oxo-4,5,6,7-tetrahydro-1H-pyrazolo[3,4-c]pyridine-3-carboxamide] | 100 to 300 | > 40000
8 | Cc1nc(CNC(=O)c2nn(-c3cccc(Cl)c3)c3c2CCN(c2ccc4c(c2)C(=O)N(C)CC4)C3=O)n[nH]1 [Example 1247, 1-(3-chlorophenyl)-6-(2-methyl-1-oxo-1,2,3,4-tetrahydroisoquinolin-7-yl)-N-((5-methyl-1H-1,2,4-triazol-3-yl)methyl)-7-oxo-4,5,6,7-tetrahydro-1H-pyrazolo[3,4-c]pyridine-3-carboxamide] | 100 to 300 | > 40000
9 | Cc1ccnc(C)c1CNC(=O)c1nn(-c2cccc(Cl)c2)c2c1CCN(c1ccc3c(c1)C(=O)N(CCO)CC3)C2=O [Example 1326, 1-(3-chlorophenyl)-N-((2,4-dimethylpyridin-3-yl)methyl)-6-(2-(2-hydroxyethyl)-1-oxo-1,2,3,4-tetrahydroisoquinolin-7-yl)-7-oxo-4,5,6,7-tetrahydro-1H-pyrazolo[3,4-c]pyridine-3-carboxamide] | 100 to 300 | > 40000
10 | CCCN1CCc2ccc(N3CCc4c(C(=O)NCc5cnccc5C)nn(-c5cccc(Cl)c5)c4C3=O)cc2C1=O [Example 1209, 1-(3-chlorophenyl)-N-((4-methylpyridin-3-yl)methyl)-7-oxo-6-(1-oxo-2-propyl-1,2,3,4-tetrahydroisoquinolin-7-yl)-4,5,6,7-tetrahydro-1H-pyrazolo[3,4-c]pyridine-3-carboxamide] | 100 to 300 | > 40000
11 | COc1ccc(CNC(=O)c2nn(-c3cccc(Cl)c3)c3c2CCN(c2ccc4c(c2)C(=O)N(C)CC4)C3=O)cn1 [Example 1235, 1-(3-chlorophenyl)-N-((6-methoxypyridin-3-yl)methyl)-6-(2-methyl-1-oxo-1,2,3,4-tetrahydroisoquinolin-7-yl)-7-oxo-4,5,6,7-tetrahydro-1H-pyrazolo[3,4-c]pyridine-3-carboxamide] | 100 to 300 | > 40000
12 | CCNC(=O)c1nn(-c2cccc(Cl)c2)c2c1CCN(c1cccc(N3CCCC3=O)c1)C2=O [Example 1365, 1-(3-chlorophenyl)-N-ethyl-7-oxo-6-(3-(2-oxopyrrolidin-1-yl)phenyl)-4,5,6,7-tetrahydro-1H-pyrazolo[3,4-c]pyridine-3-carboxamide] | 1000 to 3000 | > 40000
13 | Cc1cc(CN)cc(-n2nc(C(=O)O)c3c2C(=O)N(c2ccc4c(c2)C(=O)N(C)CC4)CC3)c1 [Example 2025, 1-(3-(aminomethyl)-5-methylphenyl)-6-(2-methyl-1-oxo-1,2,3,4-tetrahydroisoquinolin-7-yl)-7-oxo-4,5,6,7-tetrahydro-1H-pyrazolo[3,4-c]pyridine-3-carboxylic acid] | 10 to 100 | 10000 to 40000
14 | CN(C)C(=O)c1cccc(N2CCc3c(C(=O)NCC4CC4)nn(-c4cccc(Cl)c4)c3C2=O)c1 [Example 1195, 1-(3-Chlorophenyl)-N-(cyclopropylmethyl)-6-[3-(dimethylcarbamoyl)phenyl]-7-oxo-4,5-dihydropyrazolo[3,4-c]pyridine-3-carboxamide] | 3000 to 10000 | > 40000
15 | Cc1cc(CNC(=O)c2nn(-c3cccc(Cl)c3)c3c2CCN(c2ccc4c(c2)C(=O)N(C)CC4)C3=O)n[nH]1 [Example 1200, 1-(3-chlorophenyl)-6-(2-methyl-1-oxo-1,2,3,4-tetrahydroisoquinolin-7-yl)-N-((5-methyl-1H-pyrazol-3-yl)methyl)-7-oxo-4,5,6,7-tetrahydro-1H-pyrazolo[3,4-c]pyridine-3-carboxamide] | 100 to 300 | 10000 to 40000
16 | Cc1cn(C)nc1C(=O)NCc1nn(-c2cccc(Cl)c2)c2c(=O)n(-c3ccc4c(c3)CN(CCO)CC4)c(C)nc12 [Example 3009, N-[[1-(3-Chlorophenyl)-6-[2-(2-hydroxyethyl)-3,4-dihydro-1H-isoquinolin-7-yl]-5-methyl-7-oxopyrazolo[4,3-d]pyrimidin-3-yl]methyl]-1,4-dimethylpyrazole-3-carboxamide] | 300 to 1000 | 3000 to 10000
17 | Cc1nc2c(C#N)nn(-c3cccc(Cl)c3)c2c(=O)n1-c1ccc2c(c1)CN(CCO)CC2 [Example 3012, 1-(3-chlorophenyl)-6-(2-(2-hydroxyethyl)-1,2,3,4-tetrahydroisoquinolin-7-yl)-5-methyl-7-oxo-6,7-dihydro-1H-pyrazolo[4,3-d]pyrimidine-3-carbonitrile] | 100 to 300 | 1000 to 3000
